Laboratory results as given in US20130130991A1, “USE OF A PEPTIDE ENHANCING THE ABILITY OF RADIATION THERAPY TO KILL CANCER CELLS” (UNIVERSITE DE LAUSANNE, priority 2010, published 2013).
Entries after “also recorded” stand apart in the source; their conditions may differ.

Assays:
HCT116p53+/+ cells = assay: Clonogenic assay (CFA) after γ-irradiation, HCT116 p53+/+; format: cell-based; conditions: 20 μM peptide, γ radiation 0-8 Gray, colonies counted after two weeks
Protocol: (§1) One hundred HeLa cells or 500 HCT116p53^+/+ or 500 HCT116p53^−/− cells were seeded in 8.5 cm plates and after 24 hours later treated or not with TAT or TAT-RasGAP317-326 (20 μM) prior exposure to the various doses of γ radiation (0, 1, 2, 4, 6 or 8 Gray).
(§2) After two weeks, the culture medium was removed and the plates were gently washed with water. A crystal violet solution (0.5% crystal violet in 25% methanol) was then added to stain colonies and gently washed out with water. The number of colonies was then counted.
(§3) The clonogenic formation assay (CFA) was performed using cancer cell lines (HCT116 with or without p53) (FIG. 1A-B) and non-tumorigenic HaCaT cells (FIG. 1C) that were subjected to the various doses of γ radiation (0, 1, 2, or 4, Gray), in the presence or in absence of TAT-RasGAP317-326 (20 μM). The number of colonies was determined two weeks after irradiation.

HCT116p53−/− cells = assay: Clonogenic assay (CFA) after γ-irradiation, HCT116 p53-/-; format: cell-based; conditions: 20 μM peptide, γ radiation 0-8 Gray, colonies counted after two weeks
Protocol: as §1, §2, §3

HaCaT cells = assay: Clonogenic assay (CFA) after γ-irradiation, non-tumorigenic HaCaT; format: cell-based; conditions: 20 μM peptide, γ radiation 0, 1, 2 or 4 Gray, colonies after two weeks
Protocol: as §2, §3

HCT116 xenografts = assay: Radio-sensitization in mice bearing HCT116 xenografts; format: in vivo; conditions: 1 mg/kg i.p. every day for 10 days, γ-irradiation 3 Gy 1 hour after injection, nu/nu mice
Source text: (§4) Immunodeficient mice bearing subcutaneous tumors allow easy access of the tumors to defined fractionated irradiation doses with minimal effect on surrounding tissues and without the need of anesthesia. This latter point is important because anesthesia can modify the response to radiation therapy (Denekamp, 1979) and anesthesia is generally not used in patients during radiotherapy.
(§5) HCT116 tumor cells, lacking or not p53, were grafted onto the back of female Swiss homozygous nu/nu mice leading to the development of subcutaneous tumors. Then, the immunodeficient mice bearing subcutaneous tumors were divided into four experimental groups as follows:
(§6) 1) Intraperitoneal PBS injections and no irradiation. 2) Intraperitoneal TAT-RasGAP317-326 injections (every day, 1 mg peptide per kg of mouse in 300 μl PBS) and no irradiation. 3) Intraperitoneal PBS injection and γ-irradiation (3 Gy). 4) Intraperitoneal TAT-RasGAP317-326 injections and γ-irradiation.
(§7) The treatments (i.e. peptide injections followed by irradiation) were performed every day for 10 days without interruption. γ-irradiation was performed 1 hour after the peptide injection. The size of the tumors was monitored 3 times a week. #: mice were sacrificed when the tumors reached a volume of about 800 mm^3.

HCT116 p53−/− tumors = assay: Radio-sensitization in mice bearing HCT116 p53-/- xenografts; format: in vivo; conditions: 1 mg/kg i.p. every day for 10 days, γ-irradiation 3 Gy 1 hour after injection, nu/nu mice
Source text: as §4, §5, §6, §7

tumor cells = conditions: cited from earlier work
tumor growth = conditions: cited from earlier work

Substance: TAT-RasGAP317-326: HIV-TAT48-57 peptide conjugated to RasGAP317-326 (WMWVTNLRTD) with two glycine residues as spacer; cell permeable peptide (GRKKRRQRRRGGWMWVTNLRTD)
- efficacy of γ-irradiation-mediated cell killing (number of colonies) (HCT116p53+/+ cells): increases the efficacy of γ-irradiation-mediated cell killing
- efficacy of γ-irradiation-mediated cell killing (number of colonies) (HCT116p53−/− cells): increases the efficacy of γ-irradiation-mediated cell killing
- γ-radiation-sensitivity of non-cancer cells (number of colonies) (HaCaT cells): not in a non-cancer cell line; also recorded: no influence on the γ-radiation-sensitivity
- tumor growth / tumor volume of irradiated tumors (HCT116 xenografts): significant growth delay and reduction in tumor volume
- growth of irradiated HCT116 p53−/− tumors (HCT116 p53−/− tumors): very efficiently hampered
- sensitization of non-tumor cells to genotoxin-induced apoptosis (tumor cells; non-tumor cells): nor does it sensitize non-tumor cells
- apoptosis of tumor cells by the peptide alone (tumor cells; peptide by itself): does not by itself modulate apoptosis of tumor cells
- sensitization of tumor cells to genotoxin-induced death (tumor cells; tumor cells with genotoxin): specifically sensitizes tumor cells to genotoxin-induced death
- ability of cisplatin and other genotoxins to inhibit tumor growth (tumor growth; combined with genotoxins): increases the ability of cisplatin and other genotoxins to inhibit tumor growth
- dose still exerting genotoxin-sensitization on tumor growth, relative to lethal doses (tumor growth; mouse, in vivo): > 100 fold below the lethal doses
